Source: publication PMC7211193, “Evaluation of absorption, distribution, metabolism, and excretion of [^14C]-rucaparib, a poly(ADP-ribose) polymerase inhibitor, in patients with advanced solid tumors” (Investigational New Drugs, 2019)

Key:
[1] = Plasma pharmacokinetics of unchanged rucaparib (LC-MS/MS) after a single oral dose of [14C]-rucaparib 600 mg; assay type: in vivo, human
Protocol: (§1) Six patients received a single oral dose of [^14C]-rucaparib 600 mg (approximately 5.18 MBq or 140 μCi) on day 1 after fasting for 10 h and were confined at the study site for the collection of blood samples and excreta for a maximum of 12 days.
Blood samples were collected in K2 ethylenediaminetetraacetic acid (K2-EDTA) tubes at the following time points: 0 (predose), 1, 2, 3, 4, 8, 12, 24, 48, 72, 96, 120, and 144 h after administration. Blood samples were taken via an indwelling intravenous catheter or by direct vein puncture into appropriate tubes. Aliquots of blood samples were centrifuged at 1600–2000×g for 10 min at 4 °C, and supernatants were collected for plasma samples. All plasma and blood samples were stored at −70 °C until analysis. Plasma and blood samples were evaluated for total radioactivity (TRA) by liquid scintillation (LSC), parent drug concentrations by liquid chromatography (LC) with tandem mass spectrometry (MS/MS) analyses, and metabolite profiling by LC coupled to diode array ultraviolet (UV) detection and MS or radioactivity detection.
Plasma concentrations of rucaparib were determined by Q^2 Solutions (Ithaca, NY, USA) using a validated LC-MS/MS method as previously described. The concentration range for quantitation was 5–10,000 ng/mL.
Blood and plasma TRA data and the plasma concentration of rucaparib were used to determine the Cmax, tmax, AUC from time zero to time of last measurable concentration (AUC0-t), and AUC from time zero to infinity (AUC0-inf), apparent volume of distribution (Vd/F), apparent clearance (CL/F), and terminal half-life (t1/2). Phoenix WinNonlin software version 6.3 or higher (Certara, Princeton, NJ, USA) was used to run a noncompartmental method analysis on the PK data.

[2] = Mass balance: recovery of radioactivity in urine and feces; assay type: in vivo, human
Protocol: as §1
For the purposes of the mass balance study and metabolite profiling, urine and fecal samples were collected during predetermined intervals. Urine was collected at time 0 (predose), 0–6, 6–12, and 12–24 h, and daily per 24-h interval from day 2 to day 12. Urine was collected in 3-L polyethylene containers and stored at 4 °C for the duration of the collection period. After each collection period, urine samples were mixed thoroughly, weighed, portioned into aliquots in polypropylene tubes, and then frozen at or below −70 °C until metabolite profiling and TRA analyses by LSC. Feces were collected daily in 24-h intervals from predose to day 12. Feces collections were kept at or below −20 °C. Sample pretreatment involved diluting and homogenizing the feces by adding water (1–2 weight equivalents). An Ultra-Turrax mixer (IKA, Staufen im Breisgau, Germany) was used to homogenize the samples before aliquoting. Separate aliquots of fecal homogenate were transferred to polypropylene tubes. Aliquots for radioactivity measurement by LSC were stored at or below −20 °C until analysis, whereas aliquots for metabolite profiling were stored at −70 °C until analysis.
Patients 01, 05, and 09 were confined to the study site for sample collections for 12 days, but Patients 03, 06, and 08 were discharged earlier per protocol because cumulative recovery of radioactivity from these patients exceeded 90% of the administered dose or the radioactivity in urine and feces was <1% of the administered dose over a 24-h period on 2 consecutive days.
TRA analysis was performed on a Liquid Scintillation Counter Tri-Carb Model 3100TR (PerkinElmer). Aliquots of blood (300 μL), plasma (250 μL), and urine (1 mL) were transferred to scintillation vials. Blood samples were incubated at ≥60 °C with SOLVABLE (1 mL). After cooling to room temperature, EDTA (0.1 M, 100 μL) and hydrogen peroxide (225 μL) were added to dissolve blood cells, reduce foaming, and decrease color intensity. Finally, after incubation at ≥45 °C and ≥60 °C, Ultima Gold (≥5-fold) was added, and the samples were analyzed with LSC. For urine samples, Ultima Gold (≥5-fold) was added, and the samples were analyzed with LSC.
Fecal samples were processed further and combusted before LSC analyses. Aliquots (≈500 mg) of the fecal homogenates were dried in an oven (50 °C). Combustaid (100 μL) was added to the dry homogenates and the sample was combusted in a Sample Oxidizer Model 307 (PerkinElmer). Carbo-Sorb E (7 mL) was used as an absorber agent for the [^14C]-carbon dioxide that was generated during combustion. At the end of the combustion cycle, the absorber was mixed with 13 mL of the scintillant PermaFluor E. After combustion, TRA of fecal aliquots was determined by LSC as described for urine samples.
For the vomit sample collected from Patient 01 (clear vomitus) the urine method was used, and for Patient 05 (not clear vomitus) the feces method was used.

[3] = unchanged rucaparib by LC-MS/MS, single oral 600 mg, N = 6, mean ± SD
[4] = within 12 days post dose, mean ± SD, N = 6

Q: Which results are given for `CNCc1ccc(-c2[nH]c3cc(F)cc4c3c2CCNC4=O)cc1` [Rucaparib, rucaparib]?
A: AUC0-24h ratio of unlabeled rucaparib to TRA in plasma ([1]; LC-MS/MS versus LSC): 0.412; AUC(0-inf) ([1]; human, plasma, unchanged rucaparib by LC-MS/MS, single oral 600 mg, N = 6, mean ± SD, read-out: AUC0-inf, rucaparib concentration in plasma): 9340 ± 3480 ng·h/mL; AUC(0-t) ([1]; human, plasma, unchanged rucaparib by LC-MS/MS, single oral 600 mg, N = 6, mean ± SD, read-out: AUC0-t, rucaparib concentration in plasma): 8950 ± 3230 ng·h/mL; Cmax ([1]; human, plasma, unchanged rucaparib by LC-MS/MS, single oral 600 mg, N = 6, mean ± SD, read-out: Cmax, rucaparib concentration in plasma): 428 ± 154 ng/mL; Vd/F ([1]; human, plasma, unchanged rucaparib by LC-MS/MS, single oral 600 mg, N = 6, mean ± SD, read-out: Vd/F, rucaparib concentration in plasma): 2300 ± 490 L; AUC0-24h/AUC0-inf ratio, plasma unchanged rucaparib ([1]; in vivo): 0.537; Mean CL/F of rucaparib relative to that of TRA ([1]; plasma): approximately 3.8 fold; Mean Vd/F of rucaparib relative to that of TRA ([1]; plasma): ~2.8 fold; CL/F, rucaparib concentration in plasma [1, 3]: 73.9 ± 45.5 L/h; t1/2, rucaparib concentration in plasma [1, 3]: 25.9 ± 10.1 h; t1/2, rucaparib concentration in plasma ([1]; unchanged rucaparib by LC-MS/MS, single oral 600 mg, N = 6, mean ± SD, listed as rucaparib): > 25 h; tmax, rucaparib concentration in plasma ([1]; unchanged rucaparib by LC-MS/MS, single oral 600 mg, N = 6, median (range)): 4 (0.933–8.00) h; Cumulative recovery of the actual dose, Patient 01 ([2]; Patient 01, dose corrected for loss by vomiting): 86.5%; Dose recovery in feces, patient who lost 0.03% of dose by vomiting ([2]; Patient 05): 62.2%; Dose recovery in urine, patient who lost 0.03% of dose by vomiting ([2]; Patient 05): 10.9%; Cumulative dose recovery, patient who lost 0.03% of dose by vomiting (lowest recovery) ([2]; Patient 05, urine plus feces): 73.1%; bioavailability ([2]; human, urine and feces, po, 600 mg, radioactivity in urine plus radioactivity recovered as metabolites in feces, read-out: Oral bioavailability suggested by the current study): ≥ 21%; Time by which 90% of the observed urinary recovery was achieved ([2]; post dose): ≤ 120 h; Time within which 90% of the observed fecal recovery was found ([2]; post dose): ≤ 168 h; Recovery of administered radioactive dose in feces [2, 4]: 71.9%; Recovery of administered radioactive dose in urine [2, 4]: 17.4%; Total recovery of administered radioactive dose in excreta [2, 4]: 89.3%
